The values below come from PubChem BioAssay (NCI).

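Method: 48-hour compound exposure of cells in 96-well plates, five concentrations, linear interpolation of endpoints. GI50: concentration for 50% inhibition of growth. TGI denotes the concentration required for complete inhibition of growth.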 A value given as a limit tells only on which side of the number the result lay.

Some test systems named below: MDA-N; DLD-1 colon; DMS 273 small cell lung; KM20L2 colon; LXFL 529 NSCLC; SNB-78 CNS; XF 498 CNS; HOP-18 NSCLC; RXF-631 renal.
Holding throughout (test): DTP human tumour cell line panel, 48 h

For orientation: TGI means the concentration giving total growth inhibition. Low readings indicate more potent growth arrest, high ones less potent growth arrest. `Cn1c(=O)c2[nH]c(SCc3ccccn3)nc2n(C)c1=S` displayed a concentration for total growth inhibition (TGI) in the assay on MDA-N above 100 µM.
On to `CSC(C1c2ccccc2N(c2ccc(C)cc2)C2=NC(=O)N(C)C(=O)C21Cl)S(=O)(=O)c1ccc(C)cc1` (configuration not stated), for which the total growth inhibition concentration (TGI) in the assay with DLD-1 colon came to 33.5 µM; in the assay on DMS 273 small cell lung, 47.9 µM; in the assay on KM20L2 colon it was 48.4 µM; in the assay on LXFL 529 NSCLC, 42.1 µM; in the assay with SNB-78 CNS, 80.1 µM; in the assay with XF 498 CNS, 65.2 µM.
On to `CN1CCN(C)C12C=c1ccccc1=CC21CC1`, for which the total growth inhibition concentration (TGI) with DLD-1 colon was 68.2 µM; with DMS 273 small cell lung it was above 100 µM; in the assay on HOP-18 NSCLC it was above 100 µM; with KM20L2 colon it was above 58.2 µM; with LXFL 529 NSCLC, 31.2 µM; in the assay on MDA-N it was above 63.9 µM. The TGI was above 100 µM in the assay with RXF-631 renal, above 100 µM in the assay on SNB-78 CNS and 49.5 µM in the assay on XF 498 CNS.
As a reminder, the GI50 is the concentration giving 50% growth inhibition. As to `CCOC(=O)[C]1([Bi]([CH3])[CH3])N=NC(C(=O)OC)=C1C(=O)OC` (configuration not stated), the GI50 in the assay with DLD-1 colon is 18.3 µM; in the assay on DMS 273 small cell lung it was 22.5 µM; in the assay with HOP-18 NSCLC, 17.3 µM; in the assay on LXFL 529 NSCLC, 14.5 µM; in the assay on RXF-631 renal, 17.2 µM; in the assay with SNB-78 CNS, 27.4 µM. Also, the total growth inhibition concentration (TGI) was 32.5 µM in the assay with DLD-1 colon; 59.1 µM with DMS 273 small cell lung; 31 µM in the assay with HOP-18 NSCLC; 35.2 µM with LXFL 529 NSCLC; 31.4 µM in the assay on RXF-631 renal; above 100 µM with SNB-78 CNS.
In the case of `COC(=O)c1c/c(=N\NC(=O)CC(=O)Nc2ccccc2OC)c2ccccc2o1`, the total growth inhibition concentration (TGI) with DLD-1 colon, with DMS 273 small cell lung, with HOP-18 NSCLC, in the assay with KM20L2 colon, in the assay on LXFL 529 NSCLC and with SNB-78 CNS was above 100 µM each time.
In the case of `OCC(O)CC[CH2][Sn]([Br])([c]1ccccc1)[c]1ccccc1` (configuration not stated), the GI50 was above 100 µM in the assay on DLD-1 colon; above 100 µM in the assay with DMS 273 small cell lung; above 100 µM in the assay with HOP-18 NSCLC; above 100 µM in the assay on KM20L2 colon; 88.5 µM with LXFL 529 NSCLC; above 100 µM in the assay with SNB-78 CNS. The GI50 in the assay on XF 498 CNS was above 100 µM. Further, the total growth inhibition concentration (TGI) in the assay on DLD-1 colon, in the assay with DMS 273 small cell lung, in the assay with HOP-18 NSCLC, in the assay with KM20L2 colon, in the assay with LXFL 529 NSCLC and in the assay with SNB-78 CNS was above 100 µM in each case. The TGI in the assay on XF 498 CNS was above 100 µM.
In the case of `Cc1cc2c(cc1C)[n+](=O)c(C(=O)C/C(=N/NC(=O)CC#N)C(=O)Nc1ccccc1C(F)(F)F)c(C)n2[O-]`, the total growth inhibition concentration (TGI) in the assay on DMS 273 small cell lung is above 100 µM; with HOP-18 NSCLC, above 100 µM; in the assay on KM20L2 colon it was above 100 µM; in the assay on LXFL 529 NSCLC, above 100 µM; with RXF-631 renal, 33.3 µM; in the assay with XF 498 CNS, above 100 µM.
Take `O=c1c2cc([N+](=O)[O-])ccc2sc2ccsc12`: the TGI in the assay with DLD-1 colon, in the assay with HOP-18 NSCLC, with KM20L2 colon, with LXFL 529 NSCLC, with RXF-631 renal and in the assay on SNB-78 CNS was above 100 µM in each case. Also, in the assay on XF 498 CNS, the TGI was above 100 µM.
Compound `CCC(C)c1c(Cl)nc(Cl)nc1Cl` (configuration not stated) returned a TGI in the assay with MDA-N of 23.8 µM.
Take `O=C1/C(=C/c2ccccc2)CNC/C1=C\c1ccccc1`: the total growth inhibition concentration (TGI) in the assay on DLD-1 colon is 1.08 µM; in the assay on DMS 273 small cell lung, 2 µM; with HOP-18 NSCLC it was 22.9 µM; in the assay with KM20L2 colon, 3.09 µM; in the assay on LXFL 529 NSCLC it was 3.58 µM; in the assay with RXF-631 renal, 13 µM. The TGI was 41.8 µM with SNB-78 CNS and 6.41 µM with XF 498 CNS.
On to `COC12C=C(C)C(CC1)CC2C(=O)O` (configuration not stated), for which the TGI in the assay on DLD-1 colon, in the assay with DMS 273 small cell lung, with HOP-18 NSCLC, in the assay on KM20L2 colon, with LXFL 529 NSCLC and in the assay with SNB-78 CNS was above 100 µM throughout. Besides, the TGI in the assay with XF 498 CNS is above 100 µM.
Turning to `CC1=NN(C(=O)Nc2ccccc2)C(=O)C2CCC(=O)N12` (configuration not stated), the concentration for total growth inhibition (TGI) in the assay on DLD-1 colon, in the assay with DMS 273 small cell lung, in the assay with KM20L2 colon, with LXFL 529 NSCLC, in the assay with RXF-631 renal and in the assay with SNB-78 CNS was above 100 µM in each case. Further, the TGI in the assay on XF 498 CNS is above 100 µM.
`O=c1/c(=C/c2ccco2)sc2nc3ccccc3n12`: the GI50 was above 100 µM in the assay with DLD-1 colon; above 10 µM with DMS 273 small cell lung; above 100 µM with LXFL 529 NSCLC; above 100 µM with RXF-631 renal; above 100 µM in the assay with SNB-78 CNS; above 100 µM with XF 498 CNS. Moreover, the TGI in the assay on DLD-1 colon was above 100 µM; in the assay on DMS 273 small cell lung, above 100 µM; with HOP-18 NSCLC, above 100 µM; in the assay with KM20L2 colon, above 10 µM; in the assay on LXFL 529 NSCLC, above 100 µM; in the assay on RXF-631 renal, above 100 µM. Further, the TGI in the assay with SNB-78 CNS and with XF 498 CNS was above 100 µM each time.
Regarding `O=C(/C=C/c1c(O)ccc2ccccc12)c1cccc(O)c1`, the TGI in the assay with DLD-1 colon was above 100 µM; in the assay with DMS 273 small cell lung, above 100 µM; in the assay with HOP-18 NSCLC, above 86.8 µM; with KM20L2 colon it was above 100 µM; with LXFL 529 NSCLC, above 100 µM; in the assay on SNB-78 CNS, above 100 µM. In the assay on XF 498 CNS, this compound came in with a concentration for total growth inhibition (TGI) above 100 µM.
`O=C1C2c3[nH]c4ccccc4c3C3CCCCCCC3C2C(=O)N1c1ccccc1` (configuration not stated): the TGI is 29.8 µM in the assay on DMS 273 small cell lung; 33.8 µM with LXFL 529 NSCLC; 17.6 µM in the assay with RXF-631 renal; 32.4 µM in the assay with SNB-78 CNS; 10.7 µM in the assay on XF 498 CNS.
As to `C/C(CC(=O)Nc1ccc(C)cc1C)=N/N=C(N)N`, the concentration for total growth inhibition (TGI) with DLD-1 colon, in the assay on DMS 273 small cell lung, with KM20L2 colon, with LXFL 529 NSCLC, with RXF-631 renal and with SNB-78 CNS was above 100 µM in each case. In addition, the concentration for total growth inhibition (TGI) in the assay with XF 498 CNS is above 100 µM.
